Experiments:
[1] = system: MRC-5 fibroblast cell line; test: MTT cytotoxicity assay, MRC-5; type: cell-based; details: Homo sapiens, mean ± SD
Description: (§1) Three cancer cell lines (MDA-MB-231, HCT116 and HeLa; i.e., human breast cancer cells, human colorectal cancer cells, and human cervical cancer cells, respectively), and one non-malignant fibroblast MRC-5 cell line (control) were used in this study. The American Type Cell Collection (ATCC, Manassas, VA, USA) provided all examined cell lines. The cells were grown in a complete medium made up of high-glucose DMEM media supplemented with 10% fetal bovine serum and […] L-glutamine (both from Sigma-Aldrich, USA). The cells were cultured in 25 cc flasks (Thermo Fischer Scientific, Waltham, MA, USA) at 37 °C with 100% humidity in a 5% CO2 atmosphere.
(§2) The MTT test was used to assess the cytotoxicity of compounds 1–14 [44]. The cytotoxicity of naproxen was also investigated due to its clinical use and structural similarity. Throughout the exponential development period, cells were taken from culture flasks and counted, and 5 × 10^3 cells/well were planted into 96-well culture plates. Following that, the cell lines were treated with varying doses of the investigated chemicals (1–14), naproxen ([…]), and fresh complete media as a control. All evaluated cells were incubated for 24, 48, and 72 h at 37 °C in an environment containing 5% CO2 and 100% humidity. Following incubation, each well’s culture media was taken out, each well received an addition of MTT solution at a final concentration of 0.5 mg/mL, and the cells were left to incubate for an additional four hours. The MTT solution was then withdrawn carefully, and the formazan crystals were dissolved in DMSO. After shaking the plates for 10 min, absorbance at 595 nm was measured using a multiplate reader (Zenyth 3100, Anthos Labtec Instruments, Salzburg, Austria). All concentrations of the tested compounds were performed in three separate wells of the microtiter plates and in three separate experiments. The results were reported as a ratio to the control value, untreated cells. IC50 values were also determined using Microsoft Office Excel 2021. The percentage of viable cells was estimated by dividing the readout absorbance value in the wells containing treated cells by the average absorbance value measured in the wells containing untreated cells, and multiplying the result by 100 [44]. % of the viable cells = ((absorbance of treated cell-absorbance of blank)/(absorbance of untreated cell-absorbance of blank)) × 100(3)

[2] = molecular target: T1, 5-LOX (Homo sapiens, UniProt P09917); test: Fluorometric 5-LOX inhibitor screening kit; type: biochemical; details: mean of two measurements with standard error, read-out: 5-LOX Percent of Inhibition
T1 construct: purchased Abcam
T1 sequence (P09917 1-674): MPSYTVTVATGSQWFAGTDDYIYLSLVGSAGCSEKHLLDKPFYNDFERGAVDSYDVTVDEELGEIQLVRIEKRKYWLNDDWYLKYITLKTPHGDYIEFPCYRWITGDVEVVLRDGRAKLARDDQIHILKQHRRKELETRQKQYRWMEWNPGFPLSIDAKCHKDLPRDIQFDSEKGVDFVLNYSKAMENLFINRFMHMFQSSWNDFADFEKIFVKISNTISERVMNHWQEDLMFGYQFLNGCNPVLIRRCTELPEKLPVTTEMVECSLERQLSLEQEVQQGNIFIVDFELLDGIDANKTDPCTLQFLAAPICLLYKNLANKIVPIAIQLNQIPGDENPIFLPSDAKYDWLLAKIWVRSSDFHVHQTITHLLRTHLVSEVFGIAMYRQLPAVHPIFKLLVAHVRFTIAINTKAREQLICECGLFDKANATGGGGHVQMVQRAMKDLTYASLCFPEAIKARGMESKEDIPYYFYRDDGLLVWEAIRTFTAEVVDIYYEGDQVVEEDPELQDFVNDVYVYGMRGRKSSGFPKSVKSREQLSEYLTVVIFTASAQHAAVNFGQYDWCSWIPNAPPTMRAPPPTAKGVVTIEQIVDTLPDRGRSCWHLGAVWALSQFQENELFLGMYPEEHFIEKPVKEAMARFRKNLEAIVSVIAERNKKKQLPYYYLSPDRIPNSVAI
Description: The COX-2 and 5-LOX inhibitory potential of the tested compounds was evaluated using a fluorometric COX-2 and 5-LOX inhibitor screening kit (Abcam, Cambridge, UK). These tests are based on determining the presence of prostaglandin G2 (a product of COX enzyme activity) or an intermediate generated by the enzyme 5-LOX, using fluorometric detection. The mentioned experiments were performed according to the manufacturer’s instructions.
For the determination of COX-2 inhibitory potential of tested compounds, stock solutions (5 mM in DMSO) were diluted with the same solvent (test solutions). The test solutions were further diluted with COX assay buffer by mixing 2 µL of the corresponding test solution and 8 µL of COX assay buffer. For the preparation of inhibitory control (IC), celecoxib (2 µL) and COX assay buffer (8 µL) were mixed. Solvent control (SC) was prepared by mixing DMSO (2 µL) and the COX assay buffer (8 µL), enzyme control (EC) was 10 µL of COX assay buffer, while the samples (S) were 10 µL of diluted test solutions. IC, SC, EC, and S were transferred into corresponding wells. For the determination of 5-LOX inhibitory potential of tested compounds, stock solutions of the same concentration (5 mM) were prepared in DMSO. These solutions were further diluted with the same solvent to obtain the test solutions, which were added into the appropriate wells (2 µL). EC, SC, and IC were prepared by adding 2 µL of the assay buffer, DMSO, and zileuton into corresponding wells, respectively.
The fluorescence of the samples was measured kinetically at 25 °C (COX-2: Ex/Em = 535/587 nm, during 10 min; 5-LOX: Ek/Em = 500/536 nm during 20 min) using a Synergi LX multi-mode microplate reader (BioTek, Shoreline, WA, USA).

[3] = system: MDA-MB-231; test: MTT cytotoxicity assay, MDA-MB-231; type: cell-based, human; details: for IC50: mean ± SD
Description: as §1, §2

[4] = Homo sapiens, MDA-MB-231, 24 h, 24 h
[5] = Homo sapiens, MDA-MB-231, 48 h, 48 h
[6] = Homo sapiens, MDA-MB-231, 72 h, 72 h

## COc1ccc2cc([C@H](C)C(=O)NC(=S)Nc3ccccc3)ccc2c1 [Compound 8, (S)-2-(6-methoxynaphthalen-2-yl)-N-(phenylcarbamothioyl)propanamide]
[1]; MRC5, 24 h
  IC50: > 200 µM
[1]; MRC5, 48 h
  IC50: > 200 µM
[1]; MRC5, 72 h
  IC50: > 200 µM
[2]
  inhibition at 10 µM: 34.6 ± 5.84%
[3]; [4]
  IC50: > 200 µM
[3]; [5]
  IC50: > 200 µM
[3]; [6]
  IC50: > 200 µM

## COc1ccc2cc([C@H](C)C(=O)NC(=S)Nc3ccc(C)cc3)ccc2c1 [Compound 9, (S)-2-(6-methoxynaphthalen-2-yl)-N-(p-tolylcarbamothioyl)propanamide]
[1]; MRC5, 24 h
  IC50: > 200 µM
[1]; MRC5, 48 h
  IC50: > 200 µM
[1]; MRC5, 72 h
  IC50: > 200 µM
[2]
  inhibition at 10 µM: 12.9 ± 5.47%
[3]; [4]
  IC50: > 200 µM
[3]; [5]
  IC50: > 200 µM
[3]; [6]
  IC50: 112 ± 18.1 µM

## COc1ccc2cc([C@H](C)C(=O)NC(=S)Nc3ccccc3C)ccc2c1 [Compound 10, (S)-2-(6-methoxynaphthalen-2-yl)-N-(o-tolylcarbamothioyl)propanamide]
[1]; MRC5, 24 h
  IC50: > 200 µM
[1]; MRC5, 48 h
  IC50: > 200 µM
[1]; MRC5, 72 h
  IC50: > 200 µM
[2]
  inhibition at 10 µM: 27.9 ± 0.57%
[3]
  Cytotoxic effect against the MDA-MB-231 cell line (in words): moderate cytotoxic effect
[3]; 72 h
  IC50: 42.2 ± 9.8 µM
[3]; [4]
  IC50: 101 ± 11.2 µM
[3]; [5]
  IC50: 70.5 ± 8.3 µM
[3]; [6]
  IC50: 42 ± 9 µM

## COc1ccc2cc([C@H](C)C(=O)NC(=S)Nc3ccccc3OC)ccc2c1 [Compound 11, (S)-2-(6-methoxynaphthalen-2-yl)-N-((2-methoxyphenyl)carbamothioyl)propanamide]
[1]; MRC5, 24 h
  IC50: > 200 µM
[1]; MRC5, 48 h
  IC50: > 200 µM
[1]; MRC5, 72 h
  IC50: > 200 µM
[2]
  inhibition at 10 µM: 31.2 ± 5.45%
[3]; [4]
  IC50: > 200 µM
[3]; [5]
  IC50: > 200 µM
[3]; [6]
  IC50: > 200 µM

## COc1ccc2cc([C@H](C)C(=O)NC(=S)Nc3ccccc3F)ccc2c1 [Compound 12, (S)-N-((2-fluorophenyl)carbamothioyl)-2-(6-methoxynaphthalen-2-yl)propanamide]
[1]; MRC5, 24 h
  IC50: > 200 µM
[1]; MRC5, 48 h
  IC50: > 200 µM
[1]; MRC5, 72 h
  IC50: > 200 µM
[2]
  inhibition at 10 µM: 29.7 ± 8.56%
[3]; [4]
  IC50: > 200 µM
[3]; [5]
  IC50: > 200 µM
[3]; [6]
  IC50: > 200 µM

## COC(=O)[C@H](Cc1ccccc1)NC(=S)NC(=O)[C@@H](C)c1ccc2cc(OC)ccc2c1 [Compound 13, Methyl (((S)-2-(6-methoxynaphthalen-2-yl)propanoyl)carbamothioyl)phenylalaninate]
[1]; MRC5, 24 h
  IC50: > 200 µM
[1]; MRC5, 48 h
  IC50: > 200 µM
[1]; MRC5, 72 h
  IC50: > 200 µM
[2]
  inhibition at 10 µM: 19.8 ± 13.2%
[3]; [4]
  IC50: > 200 µM
[3]; [5]
  IC50: > 200 µM
[3]; [6]
  IC50: 99.5 ± 8.2 µM

## COC(=O)[C@H](Cc1c[nH]c2ccccc12)NC(=S)NC(=O)[C@@H](C)c1ccc2cc(OC)ccc2c1 [Compound 14, Methyl (((S)-2-(6-methoxynaphthalen-2-yl)propanoyl)carbamothioyl)tryptophanate]
[1]; MRC5, 24 h
  IC50: > 200 µM
[1]; MRC5, 48 h
  IC50: > 200 µM
[1]; MRC5, 72 h
  IC50: > 200 µM
[2]
  inhibition at 10 µM: 46.24 ± 0.4%
[3]; [4]
  IC50: > 200 µM
[3]; [5]
  IC50: > 200 µM
[3]; [6]
  IC50: 117 ± 15.3 µM
